Laboratory results reported in patent US8663669B2, “Pesticide treatment of soils or substrates with sulphur compounds” (Arkema France, priority 2002, dated 2014).

How the values were obtained:
[1] = system: Sclerotium rolfsii; assay: Fungicidal efficacy by gassing, sclerotia; format: cell-based; parameters: Vitality score Nm (over 19 days): scale not given here; Reduction in viability RV / Reduction in vitality score RNm: unit not given here; details: for Reduction in viability RV / Reduction in vitality score RNm: compared with the control
Procedure: These four organisms are the following:
Sclerotium rolfsii: a fungus which is also polyphagous and which is found, for example, on melon and courgette crops.
• Sclerotinia sclerotiorum: sclerotia • Sclerotium rolfsii: sclerotia • Rhizoctonia solani: colonized barley grains (mycelium and sclerotia) • Phytophthora cactorum: colonized millet grains (mycelium, sporangia and oospores) Preparation of the Fungi (24 h Before the Gassing Operation) 1. Preparation of the sclerotia of Sclerotinia sclerotiorum and of Sclerotium rolfsii: The fungi are cultured on malt agar medium until the sclerotia are obtained. The sclerotia are collected in a sterile manner and stored dry in empty Petri dishes until they are used. The sclerotia used for the trial are over 3 months old and are perfectly dormant. 2. Preparation of Phytophthora cactorum and of Rhizoctonia solani: The millet and barley used for the multiplication of the two fungi are moistened with ultrapure water by immersing for 24 hours. The grains are then slightly drained and then distributed into flasks and autoclaved (3 autoclavings at 110° C. for 20 minutes, 3 times at 24 hour intervals). Fragments of fungal culture are introduced into the flasks which are then incubated at 22° C.±2° C. (white light 18 h) until homogeneous colonization is obtained. The grains are then removed from the flasks in a sterile manner, dried in the sterile stream of a safety cabinet and then stored in the dry state until they are used. Conditions for Gassing and for Desorption
All the batches of fungi to be treated are placed for a few hours at the trial temperature (20° C.). Between 35 and 300 units of fungi or “propagules” (grains or sclerotia) are subjected to gassing during each trial.
Each fumigation chamber comprising to one or more species of fungi corresponds to a glass round-bottomed flask which is impervious to the gas and has a volume of 11 litres. Each round-bottomed flask is equipped with branch connections, one at the bottom for introducing the liquid DMDS, one at the top for collecting the air sample with a syringe.
Before introducing the gas, a partial vacuum (−500 mbar) is established in the round-bottomed flask with a vacuum pump. This makes it possible, on the one hand, to avoid the phenomenon of excess pressure due to the expansibility of DMDS in the round-bottomed flask and, on the other hand, to promote better homogeneity of the air-gas mixture in the first few seconds which follow injection. The DMDS (weighed accurately to the mg) is injected with a syringe, in liquid form, through the bottom branch connection, that is to say under the screen placed at half height of the round-bottomed flask and supporting the batches of fungi. After introducing the product, the internal pressure of the round-bottomed flask is re-established at atmospheric pressure. A magnetic stirrer operates during the entire duration of the treatment in order to properly homogenize the air-gas mixture.
At the end of the gassing, the cover for the round-bottomed flask is removed. One minute after this operation, the batches of fungi gassed are taken out and left in the open air for 15 minutes for desorption of the DMDS. They are then transferred into a Petri dish, the latter remaining open for 5 minutes to allow perfect desorption of the gas. […]

[2] = system: a large number of fungi; details: as reported in U.S. Pat. No. 2,917,429; cited from earlier work
[3] = CT 1 050 g·h/m^3 (C 15.91 g/m^3, T 66 h)
[4] = CT 1 402 g·h/m^3 (C 21.24 g/m^3, T 66 h)
[5] = CT 1 450 g·h/m^3 (C 30.96 g/m^3, T 48 h)
[6] = CT 1 899 g·h/m^3 (C 28.77 g/m^3, T 66 h)
[7] = CT 1 981 g·h/m^3 (C 30.02 g/m^3, T 66 h)
[8] = CT 2 460 g·h/m^3 (C 51.25 g/m^3, T 48 h)
[9] = CT 2 471 g·h/m^3 (C 37.44 g/m^3, T 66 h)
[10] = CT 2 837 g·h/m^3 (C 42.98 g/m^3, T 66 h)
[11] = CT 2 974 g·h/m^3 (C 45.06 g/m^3, T 66 h)
[12] = CT 3 169 g·h/m^3 (C 48.02 g/m^3, T 66 h)
[13] = CT 3 467 g·h/m^3 (C 52.53 g/m^3, T 66 h)
[14] = CT 419 g·h/m^3 (C 17.46 g/m^3, T 24 h)
[15] = CT 625 g·h/m^3 (C 26.04 g/m^3, T 24 h)
[16] = CT 703 g·h/m^3 (C 29.29 g/m^3, T 24 h)
[17] = CT 907 g·h/m^3 (C 37.79 g/m^3, T 24 h)

CSSC [DMDS, dimethyl disulphide]
Viability V [1, 3]: 27.6% | Vitality score Nm (over 19 days) [1, 3]: 2.1 | Reduction in viability RV [1, 3]: 68.0 | Reduction in vitality score RNm [1, 3]: 71.1 | Viability V [1, 4]: 18.3% | Vitality score Nm (over 19 days) [1, 4]: 1.3 | Reduction in viability RV [1, 4]: 78.7 | Reduction in vitality score RNm [1, 4]: 81.8 | Viability V [1, 5]: 15.0% | Vitality score Nm (over 19 days) [1, 5]: 0.7 | Reduction in viability RV [1, 5]: 83.2 | Reduction in vitality score RNm [1, 5]: 91.8 | Viability V [1, 6]: 3.1% | Vitality score Nm (over 19 days) [1, 6]: 0.2 | Reduction in viability RV [1, 6]: 96.4 | Reduction in vitality score RNm [1, 6]: 96.8 | Viability V [1, 7]: 4.3% | Vitality score Nm (over 19 days) [1, 7]: 0.3 | Reduction in viability RV [1, 7]: 95.0 | Reduction in vitality score RNm [1, 7]: 95.1 | Viability V [1, 8]: 10.0% | Vitality score Nm (over 19 days) [1, 8]: 0.4 | Reduction in viability RV [1, 8]: 88.8 | Reduction in vitality score RNm [1, 8]: 94.7 | Viability V [1, 9]: 0% | Vitality score Nm (over 19 days) [1, 9]: 0 | Reduction in viability RV [1, 9]: 100 | Reduction in vitality score RNm [1, 9]: 100 | Viability V [1, 10]: 0% | Vitality score Nm (over 19 days) [1, 10]: 0 | Reduction in viability RV [1, 10]: 100 | Reduction in vitality score RNm [1, 10]: 100 | Viability V [1, 11]: 0% | Vitality score Nm (over 19 days) [1, 11]: 0 | Reduction in viability RV [1, 11]: 100 | Reduction in vitality score RNm [1, 11]: 100 | Viability V [1, 12]: 0% | Vitality score Nm (over 19 days) [1, 12]: 0 | Reduction in viability RV [1, 12]: 100 | Reduction in vitality score RNm [1, 12]: 100 | Viability V [1, 13]: 0% | Vitality score Nm (over 19 days) [1, 13]: 0 | Reduction in viability RV [1, 13]: 100 | Reduction in vitality score RNm [1, 13]: 100 | Viability V [1, 14]: 59.1% | Vitality score Nm (over 19 days) [1, 14]: 5.1 | Reduction in viability RV [1, 14]: 33.7 | Reduction in vitality score RNm [1, 14]: 40.9 | Viability V [1, 15]: 53.7% | Vitality score Nm (over 19 days) [1, 15]: 4.8 | Reduction in viability RV [1, 15]: 39.8 | Reduction in vitality score RNm [1, 15]: 44.3 | Viability V [1, 16]: 51.4% | Vitality score Nm (over 19 days) [1, 16]: 4.4 | Reduction in viability RV [1, 16]: 42.4 | Reduction in vitality score RNm [1, 16]: 48.7 | Viability V [1, 17]: 16.2% | Vitality score Nm (over 19 days) [1, 17]: 1.4 | Reduction in viability RV [1, 17]: 81.8 | Reduction in vitality score RNm [1, 17]: 84.2 | Activity on a large number of fungi [2]: zero activity
